Source: patent US4421767A, “Compounds and methods for treating depression” (priority 1982, dated 1983)
Like-named read-outs stand apart in the source and are kept apart here.

Tests used:
MAO [1] = experiment: In vitro MAO inhibition; type: biochemical
[2] = tested on: heart rate and blood pressure responses to tyramine; experiment: Potentiation of tyramine response after 5 days oral MAO inhibitor in rats (Table I); type: in vivo, rat; conditions: 5 days, tyramine i.d.
Description: (A) Rats were gavaged daily for 5 days with saline or 2-amino-4-fluoro-3-(3'-hydroxyphenyl)-3-butenoic acid (AFHBA) at dosages of 15.6, 62.5, 250, or 1000 μg/kg or with clorgyline at dosages of 1250 or 5000 μg/kg. On the 6th day, rats were anaesthetized and heart rate and blood pressure responses to tyramine (0.3-50 mg/kg) administered intraduodenally (i.d.) were determined. Additionally, monoamines and MAO activity were determined in various tissues including brain.

[3] = tested on: heart rate and blood pressure responses to tyramine; type: in vivo, rat; conditions: for Tyramine Potentiation: 5 days, tyramine i.d.; for Tyramine Potentiation over and above that of carbidopa: figure in brackets
Description: (§1) (B) Rats were gavaged with saline or carbidopa given at dosage of 10 or 100 mg/kg. Thirty minutes later, the rats were gavaged with saline or AFHBA given at a dosage of 62.5 μg/kg. This treatment was repeated daily for 5 days. On the 6th day, the rats were anaesthetized and heart rate and blood pressure responses to tyramine (0.3-50 mg/kg, i.d.) were determined. Additionally, monoamines and MAO activity were determined in various tissues, including brain.

[4] = tested on: dopamine, DOPAC, 5-HT, and 5-HIAA concentrations in the brain; experiment: In vivo brain dopamine, DOPAC, 5-HT and 5-HIAA concentrations after oral dosing in rats; design: species or system rat; conditions: 18 hours
Description: In a separate experiment, rats were given AFHBA orally at various doses. The rats were killed 18 hours later and dopamine, DOPAC, 5-HT, and 5-HIAA concentrations were determined in the brain.

[5] = tested on: dopamine, DOPAC, 5-HT, and 5-HIAA concentrations in the brain; experiment: In vivo brain dopamine, DOPAC, 5-HT and 5-HIAA concentrations after i.p. injection in rats; design: species or system rat
Description: Rats were injected with AFHBA (0.5 mg/kg, i.p.) alone or with AFHBA (0.5 mg/kg, i.p.) in combination with MFMD (2 mg/kg, i.p.) or carbidopa (50 mg/kg, i.p.) given 30 minutes before the AFHBA. The rats were killed 18 hours later, and dopamine, DOPAC, 5-HT, and 5-HIAA concentrations were determined in the brain.

neuronal MAO [6] = experiment: Ex vivo brain MAO activity after oral gavage in rats, neuronal MAO; design: species or system rat; conditions: 18 hours
Description: (§2) MAO activity was determined in the brain using 5-HT and phenethylamine (PEA) as substrates.

[7] = tested on: brain noradrenaline and 5-HT concentrations; experiment: Brain amine concentration after 5 days oral MAO inhibitor in rats (Table I); type: in vivo, rat; conditions: for Brain Amine Concentration, Noradrenaline / Brain Amine Concentration, 5-HT: 5 days
Description: On the 6th day, rats were anaesthetized and heart rate and blood pressure responses to tyramine (0.3-50 mg/kg) administered intraduodenally (i.d.) were determined. Additionally, monoamines and MAO activity were determined in various tissues including brain.

MAO [8] = experiment: Ex vivo MAO activity in rats, protection by extracerebral AADC inhibitor; design: species or system rat; conditions: AFHBA 0.5 mg/kg i.p. + MFMD 2.0 mg/kg i.p. 30 min before, liver
Description: (§3) Rats were injected with AFHBA (0.5 mg/kg, i.p.) alone or with AFHBA (0.5 mg/kg, i.p.) in combination with MFMD (2.0 mg/kg, i.p.) administered 30 minutes before AFHBA. Animals were killed 18 hours later and MAO activity (5-HT and phenethylamine as substrates) was determined in brain, heart, and liver. In the brain, AFHBA administered alone inhibited neuronal MAO by 72% and non-neuronal MAO by 37%.
as §2

non-neuronal MAO = experiment: Ex vivo brain MAO activity after oral gavage in rats, non-neuronal MAO; design: species or system rat; conditions: 18 hours
Description: as §2

[9] = tested on: partially purified hog kidney AADC; experiment: In vitro decarboxylation by partially purified hog kidney AADC (HPLC); type: in vitro ADME; conditions: with 10 μM MFMD (AADC inhibitor)
Description: (§4) AFHBA was incubated with partially purified hog kidney AADC at 37° for various times up to 2 hours.

[10] = as above; type: in vitro ADME; conditions: pig; hog kidney AADC, 37°, 2 hours, DL-mixture, HPLC; read-out: decarboxylation to the corresponding allylamine
Description: as §4

neuronal MAO [11] = experiment: Ex vivo MAO activity after i.p. injection in rats, neuronal MAO; design: species or system rat
Description: as §3
III. Rats were injected with AFMBA (100 mg/kg, i.p.) and were killed 18 hours later. MAO activity was determined in the brain, heart, and liver using 5-HT and PEA.

[12] = tested on: brain noradrenaline and 5-HT concentrations; experiment: Brain amine concentration, AFHBA with or without carbidopa pretreatment in rats (Table II); type: in vivo, rat; conditions: for Brain Amine Concentration, 5-HT / Brain Amine Concentration, Noradrenaline: 5 days
Description: as §1

[13] = AFHBA 62.5 μg/kg + carbidopa 10 mg/kg
[14] = carbidopa 10000 μg/kg + AFHBA 62.5 μg/kg daily p.o.
[15] = carbidopa 100000 μg/kg + AFHBA 62.5 μg/kg daily p.o.
[16] = saline + AFHBA 62.5 μg/kg daily p.o.
[17] = AFHBA 0.5 mg/kg i.p. + MFMD 2 mg/kg i.p. 30 min before
[18] = AFHBA 0.5 mg/kg i.p. + carbidopa 50 mg/kg i.p. 30 min before
[19] = AFHBA alone 0.5 mg/kg i.p., 18 hours

- decarboxylation in the presence of MFMD [9]: no decarboxylation was observed
- metabolised at 2 h [10]: 50%
Compound: NC(C(=O)O)C(=CF)c1cccc(O)c1 (racemic) [AFHBA, 2-Amino-4-fluoro-3-(3'-hydroxyphenyl)-3-butenoic acid]
- MAO inhibition in vitro (MAO [1]): inactive or very weak inhibitor
- Tyramine Potentiation ([2]; AFHBA 15.6 μg/kg daily p.o., some potentiation at lowest doses of tyramine (footnote c)): 1.0
- Tyramine Potentiation ([2]; AFHBA 62.5 μg/kg daily p.o.): 4.0
- Tyramine Potentiation ([2]; AFHBA 250 μg/kg daily p.o.): 7.1
- Tyramine Potentiation ([2]; AFHBA 1000 μg/kg daily p.o.): 7.7
- potentiation of the tyramine response, combination versus AFHBA alone [3, 13]: the potentiation did not exceed that of AFHBA given alone
- Tyramine Potentiation [3, 14]: 3.1
- Tyramine Potentiation over and above that of carbidopa ([3]; carbidopa 10000 μg/kg + AFHBA 62.5 μg/kg): 2.8
- Tyramine Potentiation [3, 15]: 5.0
- Tyramine Potentiation over and above that of carbidopa ([3]; carbidopa 100000 μg/kg + AFHBA 62.5 μg/kg): 2.2
- Tyramine Potentiation [3, 16]: 4.0
- % Change from Control, 5-HIAA ([4]; 0.5 mg/kg oral): -11%
- % Change from Control, 5-HT ([4]; 0.5 mg/kg oral): +26%
- % Change from Control, DOPAC ([4]; 0.5 mg/kg oral): -55%
- % Change from Control, 5-HIAA ([4]; 1.0 mg/kg oral): -23%
- % Change from Control, 5-HT ([4]; 1.0 mg/kg oral): +74%
- % Change from Control, DOPAC ([4]; 1.0 mg/kg oral): -72%
- % Change from Control, Dopamine ([4]; 1.0 mg/kg oral): +17%
- % Change from Control, 5-HIAA ([4]; 2.5 mg/kg oral): -41%
- % Change from Control, 5-HT ([4]; 2.5 mg/kg oral): +140%
- % Change from Control, DOPAC ([4]; 2.5 mg/kg oral): -79%
- % Change from Control, Dopamine ([4]; 2.5 mg/kg oral): +28%
- % Change from Control, 5-HIAA [5, 17]: -48%
- % Change from Control, 5-HT [5, 17]: +92%
- % Change from Control, DOPAC [5, 17]: -92%
- % Change from Control, Dopamine [5, 17]: +50%
- % Change from Control, 5-HIAA [5, 18]: -37%
- % Change from Control, 5-HT [5, 18]: +92%
- % Change from Control, DOPAC [5, 18]: -89%
- % Change from Control, Dopamine [5, 18]: +54%
- % Change from Control, 5-HIAA [5, 19]: -34%
- % Change from Control, 5-HT [5, 19]: +30%
- % Change from Control, DOPAC [5, 19]: -76%
- % Change from Control, Dopamine [5, 19]: +25%
- % Inhibition of MAO, Neuronal (neuronal MAO [6]; 0.5 mg/kg oral): 63%
- % Inhibition of MAO, Neuronal (neuronal MAO [6]; 1.0 mg/kg oral): 71%
- % Inhibition of MAO, Neuronal (neuronal MAO [6]; 2.5 mg/kg oral): 95%
- Brain Amine Concentration, Noradrenaline ([7]; AFHBA 15.6 μg/kg daily p.o., saline 318 ± 12): 347 ± 9 ng/g
- Brain Amine Concentration, 5-HT ([7]; AFHBA 15.6 μg/kg daily p.o., saline 507 ± 18): 530 ± 27 ng/g
- Brain Amine Concentration, 5-HT ([7]; AFHBA 62.5 μg/kg daily p.o.): 531 ± 32 ng/g
- Brain Amine Concentration, Noradrenaline ([7]; AFHBA 62.5 μg/kg daily p.o.): 391 ± 12 ng/g
- Brain Amine Concentration, 5-HT ([7]; AFHBA 250 μg/kg daily p.o.): 1082 ± 98 ng/g
- Brain Amine Concentration, Noradrenaline ([7]; AFHBA 250 μg/kg daily p.o.): 563 ± 23 ng/g
- Brain Amine Concentration, 5-HT ([7]; AFHBA 1000 μg/kg daily p.o.): 1486 ± 67 ng/g
- Brain Amine Concentration, Noradrenaline ([7]; AFHBA 1000 μg/kg daily p.o.): 650 ± 29 ng/g
- brain noradrenaline and 5-HT concentrations (dose relation) ([7]; subacute treatment): dose-related increases in brain noradrenaline and 5-HT concentrations
- MAO inhibition, liver, MFMD pretreatment (MAO [8]): totally blocked MAO inhibition
- % Inhibition of MAO, Non-neuronal (non-neuronal MAO; 0.5 mg/kg oral): 41%
- % Inhibition of MAO, Non-neuronal (non-neuronal MAO; 1.0 mg/kg oral): 64%
- % Inhibition of MAO, Non-neuronal (non-neuronal MAO; 2.5 mg/kg oral): 83%
- inhibition of neuronal MAO, brain, MFMD pretreatment (neuronal MAO [11]; AFHBA 0.5 mg/kg i.p. + MFMD 2.0 mg/kg i.p. 30 min before, brain): 68%
- inhibition of neuronal MAO, heart, MFMD pretreatment (neuronal MAO [11]; AFHBA 0.5 mg/kg i.p. + MFMD 2.0 mg/kg i.p. 30 min before, heart): 18%
- inhibition of neuronal MAO, brain (neuronal MAO [11]; AFHBA alone 0.5 mg/kg i.p., 18 hours, brain): 72%
- inhibition of neuronal MAO, heart (neuronal MAO [11]; AFHBA alone 0.5 mg/kg i.p., 18 hours, heart): 52%
- MAO inhibition, liver (neuronal) (neuronal MAO [11]; AFHBA alone 0.5 mg/kg i.p., 18 hours, liver): 29%
- effect on brain monoamines, combination versus single agents [12, 13]: at least equivalent to 250 μg/kg of AFHBA given alone or to 5000 μg/kg of clorgyline
- Brain Amine Concentration, 5-HT [12, 14]: 894 ± 25 ng/g
- Brain Amine Concentration, Noradrenaline [12, 14]: 694 ± 24 ng/g
- Brain Amine Concentration, 5-HT [12, 15]: 815 ± 35 ng/g
- Brain Amine Concentration, Noradrenaline [12, 15]: 327 ± 23 ng/g
- Brain Amine Concentration, 5-HT [12, 16]: 531 ± 32 ng/g
- Brain Amine Concentration, Noradrenaline [12, 16]: 391 ± 12 ng/g
